From ChEMBL document CHEMBL1157999, “A new epidioxy sterol as an antifouling substance from a palauan marine sponge, lendenfeldia chondrodes” (1999)

Tests used:
Type in all cases: functional, Mytilus edulis/galloprovincialis MCLGV-2007
[1] = system: Mytilus edulis; assay: Antifouling activity against blue mussel assessed as responding mussel at 1 ppm by foot stimulant method
[2] = system: Mytilus edulis; assay: Antifouling activity against blue mussel assessed as responding mussel at 10 ppm by foot stimulant method
[3] = system: Mytilus edulis; assay: Antifouling activity against blue mussel assessed as responding mussel at 100 ppm by foot stimulant method

| SMILES | Activity [1] [%] | Activity [2] [%] | Activity [3] [%] |
| --- | --- | --- | --- |
| C=CC(CC[C@@H](C)[C@H]1CC[C@@H]2[C@]1(C)CC[C@H]1[C@]23C=C[C@]2(C[C@@H](O)CC[C@]12C)OO3)(OO)C(C)C (mixture of isomers) | 0 | 20 | 95 |
| CC(C)CCC[C@@H](C)[C@H]1CC[C@@H]2[C@]1(C)CC[C@H]1[C@]23C=C[C@]2(C[C@@H](O)CC[C@]12C)OO3 | 0 | 0 | 0 |
| CC(=O)O[C@H]1C[C@H]2[C@@](C)(CC[C@H]3C(C)(C)CCC[C@@]32C=O)[C@@H]2CC=C(C(C)=O)[C@H](C=O)[C@@]12C | 10 | 55 | 75 |
| CC(=O)C1=CC[C@H]2[C@]3(C)CC[C@H]4C(C)(C)CCC[C@]4(C(=O)O)[C@H]3CC(=O)[C@]2(C)[C@H]1C=O | 95 | 100 | 100 |
| CC(=O)OC[C@]12CCCC(C)(C)[C@@H]1CC[C@]1(C)[C@@H]2C[C@H]2OC(=O)[C@H]3[C@H](C(C)=O)[C@@H](O)C[C@@H]1[C@]23C | 90 | 100 | 100 |
| C=C(CC[C@@H](C)[C@H]1CC[C@@H]2[C@]1(C)CC=C1[C@]23C=C[C@]2(C[C@@H](O)CC[C@]12C)OO3)C(C)C | 0 | 0 | 0 |
